Several values for one entry are separate records, joined by “and”; a condition that tells them apart may be missing. Equal values may be shown once. Read-outs that look alike come from different tables or passages of the source.

In one data set the target is RRE subdomain IIB. Description: Fluorescence binding to fluorescein-labeled (U23) RRE subdomain IIB RNA hairpin. Conditions: RRE IIB hairpin labeled with fluorescein at U23; 100 nM RNA, pH 6.6; 95% CI and R2 in parentheses. The arrangement: species or system HIV-1. As to the method: These experiments measured compound association to an RRE subdomain IIB RNA oligonucleotide labeled with fluorescein at extrahelical loop nucleotide U23 (Figure 1) and were carried out in a Spectramax iD5 microplate reader (Molecular Devices) using 100 nM RNA dissolved in 10 mM sodium phosphate, pH 6.6, and 0.1 mM EDTA, as described before. The equilibrium dissociation constants, Kd, were determined by fitting the fluorescence intensity curves to a two-state binding model with GraphPad Prism software. […] All fluorescence experiments were carried out at least three times for each compound.

For data set [1], the system named is full-length RRE–Rev complex. Description: EMSA of full-length RRE–Rev complex formation inhibition. The format is biochemical, HIV-1. As to conditions: low-order RRE–Rev complex EMSA bands; 70 nM RRE, 0.75 µM Rev; 95% CI and R2 in parentheses. How it is done:
These assays were used to monitor full-length RRE–Rev inhibition and involved the viral protein Rev and a 234 nt RRE sequence (Figure 1), obtained as reported previously. RRE was prepared in native conditions using a procedure based on electrophoresis. The reactions used 70 nM RRE and 0.75 μM Rev dissolved in an aqueous solution containing 10 mM HEPES, pH 7.5, 300 mM KCl, 1 mM MgCl2 and 0.5 mM EDTA, and the samples were loaded onto 8% polyacrylamide gels with TB running buffer. Gels were run at 4 °C for 3 h at 150 V, and the bands were stained with SYBR Gold and quantified with ImageJ software. In all cases, we monitored the disappearance of the bands corresponding to low-order RRE–Rev complexes (Figure 4A) using a sigmoidal inhibitory model and GraphPad Prism. At least three independent experiments were conducted for each compound.
A general note: A gel shift assay detects complexes by their altered migration in electrophoresis.

Data set [2] concerns HIV-1NL4-3-Ren. Description: Anti-HIV activity in MT-2 cells infected with HIV-1NL4-3-Ren (Renilla luciferase). As to conditions: for EC50: Human immunodeficiency virus 1, MT2, 48 h. The format is cell-based. As to the method:
(§1) The methodology used to perform these experiments in MT-2 cell culture was reported previously. Infectious HIV-1NL4-3-Ren supernatants were obtained from transfection in 293T cells with plasmid pNL4-3-Ren, where a Renilla luciferase reporter gene replaces the nef gene of the wild-type pNL4-3 HIV-1 clone, which includes LTR promoters. MT-2 cells were infected with these supernatants (100,000 RLUs/well) in the presence of the compounds, and anti-HIV activity was quantified 48 h post-infection by determining Renilla luciferase activity in cell lysates compared to a non-treated control (100%), following the manufacturer’s instructions (Renilla Assay System, Promega). Briefly, 100 µL of Renilla Assay System buffer was added to obtain cell lysates, and 35 µL of these lysates was then transferred to a white 96-well microplate. RLUs were recorded after injecting 35 µL of Renilla substrate (10 s reading) using a luminometer (Berthold Detection Systems). Cellular viability was evaluated in mock-infected cells similarly treated with the same concentrations of compounds using the CellTiter-Glo assay (Promega). To assess the antiretroviral activity of benfluron in human primary cells, PBMCs were isolated from healthy donors via Ficoll density gradient centrifugation and subsequently cultured in a PHA (1 µg/mL) and IL-2 (100 U/mL)-enriched medium for 48 h at 37 °C. Activated PBMCs were infected with HIV-1NL4-3 [20] at a multiplicity of infection of 0.001 and cultured in the presence of serial dilutions (5 nM–100 µM) of benfluron. Three days post-infection, the supernatant was collected, and the HIV-inhibitory effect of the drug was measured using the Alliance HIV-1 p24 Antigen Elisa Kit (Perkin Elmer). The toxicity of the compound in PBMCs was evaluated as explained above for MT-2 cells. In both experiments, the potential background toxicity and antiviral effect of the DMSO vehicle used to solubilize the molecule were determined in parallel. In all cases, EC50 and CC50 values were calculated with GraphPad Prism using log(inhibitor) vs. response non-linear curve fitting. All cellular assays were performed in triplicate.

A short description of another data set: in vitro. The format is cell-based. As to conditions: human. How it is done: as §1
Another data set relates to PBMCs. Description: in vitro. It is filed as cell-based. As to conditions: human. How it is done: as §1
For another data set, the system named is HIV-1NL4-3. Description: Antiretroviral activity in activated PBMCs infected with HIV-1NL4-3 (p24 ELISA). It is filed as cell-based. How it is done: as §1, with “Briefly, 100 µL of Renilla Assay System buffer was added to obtain cell lysates, and 35 µL of these lysates was then transferred to a white 96-well microplate.” left out, “To assess the antiretroviral activity of benfluron in human primary cells, PBMCs were isolated from healthy donors via Ficoll density gradient centrifugation and subsequently cultured in a PHA (1 µg/mL) and IL-2 (100 U/mL)-enriched medium for 48 h at 37 °C. Activated PBMCs were infected with HIV-1NL4-3 [20] at a multiplicity of infection of 0.001 and cultured in the presence of serial dilutions (5 nM–100 µM) of benfluron.” left out, “In all cases, EC50 and CC50 values were calculated with GraphPad Prism using log(inhibitor) vs. response non-linear curve fitting. All cellular assays were performed in triplicate.” left out
(ELISA stands for enzyme-linked immunosorbent assay.)

Data set [3] relates to HIV-1NL4-3-Ren. The arrangement: method as in PMID 30071201. Conditions: MT-2 cells, HIV-1 infection; cited from earlier work.
The test system of a further data set is MT-2 cells. The arrangement: method as in PMID 30071201. As to conditions: cited from earlier work.

For `CN(C)CCOc1cccc(C(=O)c2ccccc2)c1` [Compound 2], at RRE subdomain IIB, the Kd is more than 100 µM. Also, the IC50 in data set [1] is more than 50 µM. Besides, the EC50 in the data set with HIV-1NL4-3-Ren [2] is approximately 100 µM. This compound also came in with a CC50 at 48 h in the data set “in vitro” (CC50) of approximately 100 µM.
On to `CN(C)CCOc1cc2c(c3ccccc13)-c1ccccc1C2=O` [benfluron], for which the dissociation constant Kd on RRE subdomain IIB was 4.83 µM. For the same compound, the IC50 in data set [1] amounted to 5 µM. The CC50 in “in vitro” (cytotoxic CC50) was 7.1 µM; in the data set on PBMCs it was 7.09 µM; in the data set with MT-2 cells it was 28.1 µM. In the data set with HIV-1NL4-3, the “selectivity index (SI; CC50/EC50)” value worked out at 1.3. In addition, the EC50 in the data set on HIV-1NL4-3 (Human immunodeficiency virus 1, PBMC, 72 h, HIV-1NL4-3, three days post-infection, p24, read-out: antiviral EC50) was 5.5 µM; in the data set on HIV-1NL4-3-Ren [3], 0.83 µM.
For the compound `CN(C)CCOc1ccc2c(c1)C(=O)c1ccccc1-2` [Compound 1], the Kd at RRE subdomain IIB came to 45.6 µM. The IC50 in data set [1] was more than 50 µM. In addition, the EC50 in the data set on HIV-1NL4-3-Ren [2] is more than 100 µM. The CC50 at 48 h in “in vitro” (CC50) was more than 100 µM.
As to `CN(C)CCOc1ccc(-c2ccccc2)c2ccccc12` [Compound 4], the Kd on RRE subdomain IIB stood at 77.5 µM. In data set [1], the IC50 was more than 50 µM. Besides, in the data set on HIV-1NL4-3-Ren [2], the EC50 worked out at 17 µM. Besides, in “in vitro” (CC50), the CC50 at 48 h is 28.7 µM.
For `CN1CCN(CCOc2cc(C(=O)c3ccccc3)cc3ccccc23)CC1` [Compound 6], at RRE subdomain IIB, the Kd turned out to be 34 µM. Besides, the IC50 in data set [1] was ~45 µM and 45 µM. For the same compound, a half-maximal response with HIV-1NL4-3-Ren [2] (EC50) required 24.2 µM. Moreover, the CC50 at 48 h in “in vitro” (CC50) lay within 20 to 100 µM; in the data set “in vitro” (MT-2 cells, mock-infected, 95% CI and R2 in parentheses, read-out: CC50), 20 to 49.7 µM.
Regarding `CN(C)CCOc1ccc2c(c1)Cc1ccccc1-2` [Compound 3], the Kd at RRE subdomain IIB was 106 µM. For the same compound, the IC50 in data set [1] was more than 50 µM. In the data set with HIV-1NL4-3-Ren [2], this compound returned an EC50 of approximately 100 µM. For the same compound, the cytotoxic concentration (CC50) at 48 h in the data set “in vitro” (CC50) is approximately 100 µM.
For the compound `CN(C)CCOc1cc(C(=O)c2ccccc2)cc2ccccc12` [Compound 5], the Kd at RRE subdomain IIB was determined as 95.1 µM. In addition, in data set [1], the IC50 was ~29 µM and 29 µM. In the data set with HIV-1NL4-3-Ren [2], the EC50 came to 19.4 µM. Also, the “selectivity index (SI; CC50/EC50)” value in the data set on HIV-1NL4-3-Ren [2] (MT-2 cells) was found to be 2.6. For the same compound, it took 49.7 µM to reach half-maximal cytotoxicity in “in vitro” (CC50) (CC50 at 48 h).

Broadly, the Kd is the concentration at which binding is half-saturated. In general, IC50 refers to the point on the concentration scale where inhibition reaches its midpoint. The term EC50 denotes the concentration at which the effect is half-maximal. As a reminder, the CC50 is the concentration giving 50% cytotoxicity.

The values are drawn from paper PMC10609163, “Exploring the HIV-1 Rev Recognition Element (RRE)–Rev Inhibitory Capacity and Antiretroviral Action of Benfluron Analogs” (Molecules, 2023).
